Experiments:
Assay in all cases: biochemical
Set-up in all cases: DiscoveRx KINOMEscan competition binding, percent of DMSO control signal at 100 nM
Settings in all cases: read-out: Fig. 4a / Percent Control / Compound 1; percent of DMSO control, competition binding
[1] = target: EGFR(L747-S752del, P753S) (Homo sapiens, UniProt P00533, DEL747-752/P753S)
BRAF(V600E) = BRAF(V600E) (Homo sapiens, UniProt P15056, V600E)
MAST1 = MAST1 (Homo sapiens, UniProt Q9Y2H9)
NLK = NLK (Homo sapiens, UniProt Q9UBE8)
p38-gamma = target: T1, p38-gamma (Homo sapiens, UniProt P53778)
T1 construct: gene MAPK12

KIT = KIT (Homo sapiens, UniProt P10721)
ADCK3 = target: T2, ADCK3 (Homo sapiens, UniProt Q8NI60)
T2 construct: gene COQ8A

[2] = target: T3, ABL1(H396P)-nonphosphorylated (Homo sapiens, UniProt P00519, H396P)
T3 construct: nonphosphorylated

CTK = target: T4, CTK (Homo sapiens, UniProt P42679)
T4 construct: gene MATK

MST4 = target: T5, MST4 (Homo sapiens, UniProt Q9P289)
T5 construct: gene STK26

FER = FER (Homo sapiens, UniProt P16591)
PAK3 = PAK3 (Homo sapiens, UniProt O75914)
PAK2 = PAK2 (Homo sapiens, UniProt Q13177)
PAK4 = PAK4 (Homo sapiens, UniProt O96013)
TNIK = TNIK (Homo sapiens, UniProt Q9UKE5)
CSNK1G3 = CSNK1G3 (Homo sapiens, UniProt Q9Y6M4)
ICK = target: T6, ICK (Homo sapiens, UniProt Q9UPZ9)
T6 construct: gene CILK1

RAF1 = RAF1 (Homo sapiens, UniProt P04049)
PIM2 = PIM2 (Homo sapiens, UniProt Q9P1W9)
TRKB = target: T7, TRKB (Homo sapiens, UniProt Q16620)
T7 construct: gene NTRK2

SGK3 = SGK3 (Homo sapiens, UniProt Q96BR1)
FLT3(ITD) = FLT3(ITD) (Homo sapiens, UniProt P36888, ITD)
FGFR1 = FGFR1 (Homo sapiens, UniProt P11362)
ROCK1 = ROCK1 (Homo sapiens, UniProt Q13464)
PCTK2 = target: T8, PCTK2 (Homo sapiens, UniProt Q00537)
T8 construct: gene CDK17
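Further: KINOMEscan kinase panel binding assay, signal normalized between DMSO as 100% and a positive control compound as 0%.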

NLK, sequence (Q9UBE8 whole entry): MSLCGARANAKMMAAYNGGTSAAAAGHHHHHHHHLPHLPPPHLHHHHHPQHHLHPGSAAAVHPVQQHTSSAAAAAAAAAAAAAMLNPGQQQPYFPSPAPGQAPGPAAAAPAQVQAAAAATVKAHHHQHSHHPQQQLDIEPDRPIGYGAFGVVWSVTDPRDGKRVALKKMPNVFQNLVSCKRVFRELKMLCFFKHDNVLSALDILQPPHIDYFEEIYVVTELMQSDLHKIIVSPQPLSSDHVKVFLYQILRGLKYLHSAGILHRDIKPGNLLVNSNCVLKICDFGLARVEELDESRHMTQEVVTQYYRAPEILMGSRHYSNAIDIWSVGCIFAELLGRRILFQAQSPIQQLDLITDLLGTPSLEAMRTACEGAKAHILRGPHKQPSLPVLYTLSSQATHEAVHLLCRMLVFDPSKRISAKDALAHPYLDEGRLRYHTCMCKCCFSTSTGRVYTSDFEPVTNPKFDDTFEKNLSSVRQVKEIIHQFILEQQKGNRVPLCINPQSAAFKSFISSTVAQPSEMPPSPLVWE
KIT, sequence (P10721 whole entry): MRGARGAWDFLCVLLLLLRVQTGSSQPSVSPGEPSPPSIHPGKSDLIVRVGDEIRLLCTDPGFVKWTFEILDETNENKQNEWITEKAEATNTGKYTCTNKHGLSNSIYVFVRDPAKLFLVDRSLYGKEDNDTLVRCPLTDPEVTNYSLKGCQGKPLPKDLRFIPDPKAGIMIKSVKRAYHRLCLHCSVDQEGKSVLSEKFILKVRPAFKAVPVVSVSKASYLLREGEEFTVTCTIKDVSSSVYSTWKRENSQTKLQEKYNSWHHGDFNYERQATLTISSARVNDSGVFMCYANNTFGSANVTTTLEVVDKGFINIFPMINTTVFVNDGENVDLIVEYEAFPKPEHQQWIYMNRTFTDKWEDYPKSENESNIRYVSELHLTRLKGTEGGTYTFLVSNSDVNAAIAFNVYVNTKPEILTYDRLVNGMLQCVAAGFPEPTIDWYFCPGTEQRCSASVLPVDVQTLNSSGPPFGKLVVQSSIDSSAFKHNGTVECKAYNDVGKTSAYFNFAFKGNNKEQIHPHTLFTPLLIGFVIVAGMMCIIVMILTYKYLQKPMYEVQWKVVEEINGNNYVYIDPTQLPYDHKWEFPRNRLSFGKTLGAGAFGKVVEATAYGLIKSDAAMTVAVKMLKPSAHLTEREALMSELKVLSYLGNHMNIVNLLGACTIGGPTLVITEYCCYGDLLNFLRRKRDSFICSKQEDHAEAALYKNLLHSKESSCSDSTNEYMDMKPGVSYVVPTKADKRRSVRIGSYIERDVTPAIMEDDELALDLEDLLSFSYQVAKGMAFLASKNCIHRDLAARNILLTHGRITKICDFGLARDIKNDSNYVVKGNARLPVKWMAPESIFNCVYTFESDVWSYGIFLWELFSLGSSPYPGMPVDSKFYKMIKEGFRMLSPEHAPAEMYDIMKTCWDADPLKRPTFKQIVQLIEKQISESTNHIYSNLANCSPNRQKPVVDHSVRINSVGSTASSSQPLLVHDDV
ROCK1, sequence (Q13464 whole entry): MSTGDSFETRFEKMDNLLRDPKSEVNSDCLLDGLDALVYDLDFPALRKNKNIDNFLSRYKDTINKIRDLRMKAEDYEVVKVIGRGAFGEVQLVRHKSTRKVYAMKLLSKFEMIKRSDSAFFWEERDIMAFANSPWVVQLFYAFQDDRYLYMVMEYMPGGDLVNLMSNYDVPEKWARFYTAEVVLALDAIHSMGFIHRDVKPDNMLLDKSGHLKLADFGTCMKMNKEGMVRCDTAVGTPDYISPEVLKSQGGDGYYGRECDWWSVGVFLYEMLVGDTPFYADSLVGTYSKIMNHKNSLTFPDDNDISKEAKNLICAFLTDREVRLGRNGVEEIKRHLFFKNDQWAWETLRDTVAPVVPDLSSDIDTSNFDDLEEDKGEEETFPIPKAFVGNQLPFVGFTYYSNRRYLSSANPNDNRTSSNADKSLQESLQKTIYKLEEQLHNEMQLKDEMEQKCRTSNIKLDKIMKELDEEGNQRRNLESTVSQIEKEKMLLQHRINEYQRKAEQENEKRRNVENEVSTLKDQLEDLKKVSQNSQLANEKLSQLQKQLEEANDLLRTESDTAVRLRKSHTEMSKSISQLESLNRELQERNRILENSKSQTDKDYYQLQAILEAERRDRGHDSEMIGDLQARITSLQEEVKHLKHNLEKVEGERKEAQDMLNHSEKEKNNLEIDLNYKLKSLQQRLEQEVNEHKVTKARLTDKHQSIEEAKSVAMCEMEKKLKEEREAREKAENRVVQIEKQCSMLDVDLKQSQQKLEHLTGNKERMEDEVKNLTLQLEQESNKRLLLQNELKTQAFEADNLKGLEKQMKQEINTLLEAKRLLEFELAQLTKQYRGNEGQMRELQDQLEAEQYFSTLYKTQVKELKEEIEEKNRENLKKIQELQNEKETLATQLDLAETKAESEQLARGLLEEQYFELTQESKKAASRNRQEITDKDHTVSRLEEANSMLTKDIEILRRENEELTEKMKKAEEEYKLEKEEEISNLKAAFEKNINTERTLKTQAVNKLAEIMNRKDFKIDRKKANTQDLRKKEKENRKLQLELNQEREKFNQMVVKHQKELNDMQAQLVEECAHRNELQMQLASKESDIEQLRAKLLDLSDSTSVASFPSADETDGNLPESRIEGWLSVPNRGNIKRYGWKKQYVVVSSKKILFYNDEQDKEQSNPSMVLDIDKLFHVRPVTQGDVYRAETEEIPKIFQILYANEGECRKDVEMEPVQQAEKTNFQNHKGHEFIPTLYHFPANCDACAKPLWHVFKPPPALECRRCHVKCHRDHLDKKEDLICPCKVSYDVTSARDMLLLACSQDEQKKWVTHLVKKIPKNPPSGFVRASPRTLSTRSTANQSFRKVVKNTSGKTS
T4 sequence (P42679 whole entry): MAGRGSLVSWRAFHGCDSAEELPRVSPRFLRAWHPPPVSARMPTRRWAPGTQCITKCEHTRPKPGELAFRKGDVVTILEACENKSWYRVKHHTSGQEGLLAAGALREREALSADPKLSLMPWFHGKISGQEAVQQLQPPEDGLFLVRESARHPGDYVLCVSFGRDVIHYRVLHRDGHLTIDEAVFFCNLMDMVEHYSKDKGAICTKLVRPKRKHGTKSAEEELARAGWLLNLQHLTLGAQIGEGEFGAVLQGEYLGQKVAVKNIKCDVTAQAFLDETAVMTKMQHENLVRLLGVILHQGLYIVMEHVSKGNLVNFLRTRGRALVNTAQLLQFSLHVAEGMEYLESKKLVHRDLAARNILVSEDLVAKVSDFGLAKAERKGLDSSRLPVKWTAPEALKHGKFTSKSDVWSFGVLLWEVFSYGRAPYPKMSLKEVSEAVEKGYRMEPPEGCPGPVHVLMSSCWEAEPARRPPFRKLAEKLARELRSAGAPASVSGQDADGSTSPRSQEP
PAK2, sequence (Q13177 whole entry): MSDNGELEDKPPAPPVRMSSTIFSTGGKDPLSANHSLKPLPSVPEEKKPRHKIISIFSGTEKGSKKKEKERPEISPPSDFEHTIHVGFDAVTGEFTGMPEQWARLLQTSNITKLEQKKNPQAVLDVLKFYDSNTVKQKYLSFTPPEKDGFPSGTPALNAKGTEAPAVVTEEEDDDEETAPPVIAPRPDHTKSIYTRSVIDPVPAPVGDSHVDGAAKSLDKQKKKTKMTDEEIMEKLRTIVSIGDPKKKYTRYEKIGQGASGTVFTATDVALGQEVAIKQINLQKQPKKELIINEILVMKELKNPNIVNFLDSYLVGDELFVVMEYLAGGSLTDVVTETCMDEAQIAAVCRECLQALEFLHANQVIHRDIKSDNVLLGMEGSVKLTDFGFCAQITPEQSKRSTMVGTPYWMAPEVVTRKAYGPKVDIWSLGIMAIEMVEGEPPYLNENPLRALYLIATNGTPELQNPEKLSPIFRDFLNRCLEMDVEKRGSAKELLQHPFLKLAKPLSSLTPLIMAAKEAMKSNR
CSNK1G3, sequence (Q9Y6M4 whole entry): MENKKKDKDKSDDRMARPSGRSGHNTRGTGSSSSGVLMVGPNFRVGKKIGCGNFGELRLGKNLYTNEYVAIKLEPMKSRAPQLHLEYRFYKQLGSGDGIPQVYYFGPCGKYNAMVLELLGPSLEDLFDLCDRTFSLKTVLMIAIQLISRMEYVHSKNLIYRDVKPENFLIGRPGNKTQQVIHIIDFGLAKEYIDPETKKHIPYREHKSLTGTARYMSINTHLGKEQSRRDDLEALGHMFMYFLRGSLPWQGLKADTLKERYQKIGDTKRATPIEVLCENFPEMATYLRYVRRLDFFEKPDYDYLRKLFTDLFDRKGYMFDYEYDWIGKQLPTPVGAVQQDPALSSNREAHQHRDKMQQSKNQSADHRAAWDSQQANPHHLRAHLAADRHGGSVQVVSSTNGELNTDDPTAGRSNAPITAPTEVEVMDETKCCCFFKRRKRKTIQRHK
PAK3, sequence (O75914 whole entry): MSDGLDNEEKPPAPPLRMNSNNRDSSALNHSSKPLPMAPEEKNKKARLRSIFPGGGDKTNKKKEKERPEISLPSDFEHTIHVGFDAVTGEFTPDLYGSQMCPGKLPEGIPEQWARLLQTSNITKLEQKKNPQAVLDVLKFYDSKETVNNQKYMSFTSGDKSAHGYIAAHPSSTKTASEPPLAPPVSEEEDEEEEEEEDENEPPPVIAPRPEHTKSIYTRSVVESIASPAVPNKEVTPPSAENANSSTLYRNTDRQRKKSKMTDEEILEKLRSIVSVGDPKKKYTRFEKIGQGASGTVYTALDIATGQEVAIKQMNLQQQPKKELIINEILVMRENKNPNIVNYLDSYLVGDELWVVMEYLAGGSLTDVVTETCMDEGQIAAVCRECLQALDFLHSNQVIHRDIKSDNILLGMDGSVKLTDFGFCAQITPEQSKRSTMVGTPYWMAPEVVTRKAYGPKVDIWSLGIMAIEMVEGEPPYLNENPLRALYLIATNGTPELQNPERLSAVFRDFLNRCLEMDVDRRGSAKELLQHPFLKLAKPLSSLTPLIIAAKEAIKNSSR

## Cc1cnc2nc1Nc1cccc(c1)COCc1cc(ccc1OCCN1CCCC1)N2 [Compound 1]
[1]
  remaining binding at 0.1 µM: 80%
BRAF(V600E)
  remaining binding at 0.1 µM: 93%
MAST1
  remaining binding at 0.1 µM: 94%
NLK
  remaining binding at 0.1 µM: 95%
p38-gamma
  remaining binding at 0.1 µM: 100%
KIT
  remaining binding at 0.1 µM: 57%
ADCK3
  remaining binding at 0.1 µM: 96%
[2]
  remaining binding at 0.1 µM: 37%
CTK
  remaining binding at 0.1 µM: 97%
MST4
  remaining binding at 0.1 µM: 100%
FER
  remaining binding at 0.1 µM: 87%
PAK3
  remaining binding at 0.1 µM: 100%
PAK2
  remaining binding at 0.1 µM: 100%
PAK4
  remaining binding at 0.1 µM: 100%
TNIK
  remaining binding at 0.1 µM: 80%
CSNK1G3
  remaining binding at 0.1 µM: 100%
ICK
  remaining binding at 0.1 µM: 80%
RAF1
  remaining binding at 0.1 µM: 98%
PIM2
  remaining binding at 0.1 µM: 100%
TRKB
  remaining binding at 0.1 µM: 40%
SGK3
  remaining binding at 0.1 µM: 91%
FLT3(ITD)
  remaining binding at 0.1 µM: 17%
FGFR1
  remaining binding at 0.1 µM: 89%
ROCK1
  remaining binding at 0.1 µM: 88%
PCTK2
  remaining binding at 0.1 µM: 98%
